# Like-named read-outs stand apart in the source and are kept apart here. Where no end group is shown, it is not given here.
# What was measured:
# C. neoformans = test: microbe, parasite or virus in culture; format: cell-based, Cryptococcus neoformans (ATCC 32045)
# Description: (§1) These standard strains of Escherichia coli (E. coli, ATCC 8739), Staphylococcus aureus (S. aureus, ATCC 6538), Pseudomonas aeruginosa (P. aeruginosa, ATCC 27853), Acinetobacter baumannii (A. baumannii, ATCC 1968), Candida albicans (ATCC 10231), and the clinical strain of Methicillin-resistant Staphylococcus aureus (MRSA, MRSA-Z) were obtained from Kunming Medical University. The standard strain of C. neoformans (ATCC 32045) was purchased from Shanghai Yingxin Laboratory Co., Ltd. (CAS NO. YXJ50058). Different strains of E. coli, S. aureus, MRSA, P. aeruginosa, and A. baumannii were cultured with shaking at 37 °C in Luria–Bertani (LB) medium. C. neoformans was cultured at 35 °C in Sabouraud Dextrose Agar (SDA) medium according to the manufacturer’s instructions.
# (§2) According to Clinical and Laboratory Standards Institute (CLSI) protocols, the minimum inhibitory concentration (MIC) is the minimum drug concentration at which antibiotics inhibit the growth and reproduction of strains. The different strains were grown in their corresponding media at 35 °C or 37 °C until they entered the exponential growth phase. Fluconazole and amphotericin B were used as positive controls, and sterile 0.9% NaCl was used as a negative control. The peptides were diluted to various concentrations in sterile saline. According to 1 OD = 1 × 10^9 CFU/mL, the above bacterial solution was diluted to 2 × 10^5 CFU/mL with the corresponding medium. In advance, 100 μL of normal saline was added to a sterile 96-well plate, and 200 μL of the sample to be tested was added to the first well. The sample to be tested was subjected to double gradient dilution, and then 100 μL of bacterial solution with a concentration of 2 × 10^5 was added to each well. It was cultured at 35 °C or 37 °C for different times. The light absorption value of the bacterial solution at 600 nm was detected by a microplate reader (Epoch Etock, Biotek, Winooski, VT, USA), and the average concentration of the samples in the pores and adjacent pores that could not detect microbial growth was used as the MIC value.
# S. aureus = test: microbe, parasite or virus in culture; format: cell-based, Staphylococcus aureus (ATCC 6538)
# Description: as §1, §2
# MRSA = test: microbe, parasite or virus in culture; format: cell-based
# Description: as §1, §2
# C. albicans = test: microbe, parasite or virus in culture; format: cell-based, Candida albicans (ATCC 10231)
# Description: as §1, §2
# E. coli = test: microbe, parasite or virus in culture; format: cell-based, Escherichia coli (ATCC 8739)
# Description: as §1, §2
# P. aeruginosa = test: microbe, parasite or virus in culture; format: cell-based, Pseudomonas aeruginosa (ATCC 27853)
# Description: as §1, §2
# A. baumannii = test: microbe, parasite or virus in culture; format: cell-based, Acinetobacter baumannii (ATCC 1968)
# Description: as §1, §2
# C. neoformans ATCC 32045 = test: Fungal-killing kinetics; format: cell-based, Cryptococcus neoformans; conditions: positive control; concentration not stated in the sentence (1×, 5×, 10 × MIC tested)
# Experimental: The single colony of C. neoformans ATCC 32045 was selected and cultured at 180 rpm and 37 °C, washed three times with normal saline, and then resuspended, and the fungal solution was diluted to 1 × 10^6 CFU/mL with SDB medium. The positive control was fluconazole, and the negative control was normal saline. […] The fungal liquid after adding the sample was quickly put into the 37 °C constant temperature incubator, and the shaking culture was carried out at 180 rpm. […] The plate was placed in a constant temperature incubator for inverted culture for 72 h at 37 °C, and then the single colony on the plate was counted.
# [1] = Cryptococcus neoformans, ATCC32045, ATCC 32045, double gradient dilution, 2 × 10^5 CFU/mL, 35 °C, OD 600 nm, mean of three independent experiments
# [2] = Candida albicans, ATCC10231, ATCC 10231, double gradient dilution, 2 × 10^5 CFU/mL, OD 600 nm, mean of three independent experiments
compound,measurement,setting,value
FIKKMLGNFSNYVRRPGKR [blap-9],MIC,C. neoformans,81.10 µM
same,MIC,S. aureus,81.10 µM
same,MIC,MRSA,81.10 µM
same,MIC,C. albicans,40.55 µM
same,MIC,E. coli,81.10 µM
same,MIC,P. aeruginosa,81.10 µM
same,MIC,A. baumannii,81.10 µM
KRALSLPKMREDRLLYRGRA [blap-7],MIC,C. neoformans,312.50 µM
same,MIC,C. albicans,156.30 µM
"C[C@@H]1[C@H](O)[C@@H](C)/C=C/C=C/C=C/C=C/C=C/C=C/C=C/[C@H](O[C@@H]2O[C@H](C)[C@@H](O)[C@H](N)[C@@H]2O)C[C@@H]2O[C@](O)(C[C@@H](O)C[C@@H](O)[C@H](O)CC[C@@H](O)C[C@@H](O)CC(=O)O[C@H]1C)C[C@H](O)[C@H]2C(=O)O [Amphotericin B, reference compound]",MIC,C. neoformans; [1],0.05 µM
same,MIC,C. albicans; [2],0.05 µM
"OC(Cn1cncn1)(Cn1cncn1)c1ccc(F)cc1F [Fluconazole, reference compound]",MIC,C. neoformans; [1],6.36 µM
same,MIC,C. albicans; [2],0.61 µM
same,time required for fungicidal rate to reach more than 90%,C. neoformans ATCC 32045,360 min
RWKERKKWQKRWKRKKG [blap-8],MIC,C. neoformans,19.53 µM
same,MIC,S. aureus,156.3 µM
same,MIC,MRSA,156.30 µM
same,MIC,C. albicans,19.53 µM
same,MIC,E. coli,312.50 µM
same,MIC,P. aeruginosa,7.81 µM
RWNTSRWLRL [blap-10],MIC,C. neoformans,312.5 µM
same,MIC,MRSA,19.54 µM
same,MIC,C. albicans,156.30 µM
same,MIC,P. aeruginosa,312.50 µM
"CC1(C)S[C@@H]2[C@H](NC(=O)[C@H](N)c3ccccc3)C(=O)N2[C@H]1C(=O)O [Ampicillin, reference compound]",MIC,"S. aureus; Staphylococcus aureus, ATCC6538, ATCC 6538, double gradient dilution, 2 × 10^5 CFU/mL, LB, 37 °C, OD 600 nm, mean of three independent experiments",63.1 µM
same,MIC,"MRSA; Staphylococcus aureus, clinical strain MRSA-Z, double gradient dilution, 2 × 10^5 CFU/mL, LB, 37 °C, OD 600 nm, mean of three independent experiments",126 µM
same,MIC,"E. coli; Escherichia coli, ATCC8739, ATCC 8739, double gradient dilution, 2 × 10^5 CFU/mL, LB, 37 °C, OD 600 nm, mean of three independent experiments",31.6 µM
same,MIC,"P. aeruginosa; Pseudomonas aeruginosa, ATCC27853, ATCC 27853, double gradient dilution, 2 × 10^5 CFU/mL, LB, 37 °C, OD 600 nm, mean of three independent experiments",31.6 µM
same,MIC,"A. baumannii; Acinetobacter baumannii, ATCC1968, ATCC 1968, double gradient dilution, 2 × 10^5 CFU/mL, LB, 37 °C, OD 600 nm, mean of three independent experiments",31.6 µM
